Assay results reported in ChEMBL document CHEMBL1201862, “PubChem BioAssay data set” (2004).
One block for each compound: values may come before it. Active and inactive are the calls of the source.

Tests used:
[1] = biological target: Dual specificity protein kinase CLK2 (Homo sapiens, UniProt P49760); format: functional
[2] = biological target: Dual specificity protein kinase CLK4 (Homo sapiens, UniProt Q9HAZ1); format: functional
[3] = biological target: Dual specificity tyrosine-phosphorylation-regulated kinase 1A (Homo sapiens, UniProt Q13627); format: functional;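 further: measured against DYRK1A as one member of a broad kinome profiling panel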
[4] = biological target: Eukaryotic translation initiation factor 4H (Homo sapiens, UniProt Q15056); assay: eIF4H binding inhibition – biochemical, uHTS, fluorescence polarization, translation initiation inhibitor project, primary screen (AID 2012)
[5] = biological target: Polyadenylate-binding protein 1 (Homo sapiens, UniProt P11940); assay: blockers of PABP interaction with poly(A) – biochemical, fluorescence polarization, […] (AID 2014)
Sequence of Polyadenylate-binding protein 1 (P11940 whole entry): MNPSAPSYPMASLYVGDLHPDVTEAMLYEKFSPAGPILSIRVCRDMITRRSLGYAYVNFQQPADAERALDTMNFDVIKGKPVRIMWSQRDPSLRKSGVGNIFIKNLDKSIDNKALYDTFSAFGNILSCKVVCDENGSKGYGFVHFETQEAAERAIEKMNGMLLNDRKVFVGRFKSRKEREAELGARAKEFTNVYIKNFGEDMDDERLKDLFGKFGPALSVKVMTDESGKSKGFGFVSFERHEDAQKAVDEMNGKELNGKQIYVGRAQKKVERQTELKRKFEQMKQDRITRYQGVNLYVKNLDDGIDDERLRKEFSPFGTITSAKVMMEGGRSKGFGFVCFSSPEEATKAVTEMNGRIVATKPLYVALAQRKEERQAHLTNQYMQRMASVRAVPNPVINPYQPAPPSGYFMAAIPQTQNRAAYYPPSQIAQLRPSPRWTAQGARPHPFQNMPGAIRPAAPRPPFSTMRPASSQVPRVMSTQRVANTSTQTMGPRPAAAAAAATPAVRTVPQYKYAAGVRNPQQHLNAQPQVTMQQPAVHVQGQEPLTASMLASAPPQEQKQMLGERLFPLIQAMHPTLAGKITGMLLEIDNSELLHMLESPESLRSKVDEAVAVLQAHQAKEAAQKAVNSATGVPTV

[6] = biological target: T1, DNA dC->dU-editing enzyme APOBEC-3A (Homo sapiens, UniProt P31941); assay: Dose Response confirmation of small molecule APOBEC3A DNA Deaminase Inhibitors via a fluorescence-based single-stranded DNA deaminase assay. [Related pubchem assays (depositor defined):AID493011, AID493024]; format: functional
T1 sequence (P31941 whole entry): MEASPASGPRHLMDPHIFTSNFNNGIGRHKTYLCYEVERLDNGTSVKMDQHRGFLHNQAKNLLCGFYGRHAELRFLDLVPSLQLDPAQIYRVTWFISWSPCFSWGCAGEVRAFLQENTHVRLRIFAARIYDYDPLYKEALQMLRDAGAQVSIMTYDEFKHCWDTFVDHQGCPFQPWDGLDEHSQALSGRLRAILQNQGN

[7] = biological target: T2, DNA dC->dU-editing enzyme APOBEC-3G (Homo sapiens, UniProt Q9HC16); format: functional;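 further: Dose-response counterscreen measuring inhibition of APOBEC3G DNA deaminase activity, run while confirming APOBEC3A inhibitors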
T2 sequence (Q9HC16 whole entry): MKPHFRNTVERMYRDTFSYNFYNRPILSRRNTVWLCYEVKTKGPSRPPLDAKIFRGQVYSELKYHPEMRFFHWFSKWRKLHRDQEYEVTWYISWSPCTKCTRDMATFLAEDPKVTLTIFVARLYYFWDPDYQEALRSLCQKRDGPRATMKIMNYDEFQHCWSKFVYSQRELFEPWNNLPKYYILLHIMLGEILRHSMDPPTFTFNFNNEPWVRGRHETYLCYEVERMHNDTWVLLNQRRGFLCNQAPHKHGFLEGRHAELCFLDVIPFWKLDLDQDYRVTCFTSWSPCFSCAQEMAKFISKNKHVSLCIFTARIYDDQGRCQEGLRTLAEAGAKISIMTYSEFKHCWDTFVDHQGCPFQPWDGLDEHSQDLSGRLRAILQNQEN

[8] = biological target: T2, DNA dC->dU-editing enzyme APOBEC-3G; assay: inhibition of APOBEC3G ssDNA deamination – biochemical, fluorescence, single-stranded DNA substrate, SAR follow-up (AID 602136); format: functional; settings: read-out: IC50_Mean
[9] = biological target: T1, DNA dC->dU-editing enzyme APOBEC-3A; assay: SAR analysis of small molecule inhibitors of APOBEC3A DNA Deaminase via a fluorescence-based single-stranded DNA deaminase assay.; format: functional; settings: read-out: IC50_Mean
INS1 [10] = assay: beta-cell survival under cytokine stress – INS-1E, ATP luminescence, dry powder, dose response (AID 488844); format: functional, cell-based; settings: Rattus norvegicus
INS1 [11] = assay: suppression of NO production in INS-1E cells – cell-based, Griess absorbance, dry powder, dose response (AID 488866); format: functional; settings: Rattus norvegicus
INS1 [12] = assay: INS-1E mitochondrial potential loss inhibitors – cell-based, JC-1 fluorescence, dry powder, set 2, dose response (AID 488867); format: functional; settings: Rattus norvegicus
INS1 [13] = assay: suppression of NO production in INS-1E cells – cell-based, Griess absorbance, dry powder, set 2, dose response (AID 488868); format: functional; settings: Rattus norvegicus
INS1 [14] = assay: INS-1E mitochondrial potential rescue under cytokines – cell-based, JC-1 fluorescence ratio, dry powder, dose response (AID 488931); format: functional; settings: Rattus norvegicus
[15] = SAR analysis of small molecule activators of Apaf-1 using a LZ-Caspase-9/Caspase-3 Fluorescent Selectivity assay - Set 2.; format: functional; settings: read-out: EC50_Mean
[16] = biological target: Apoptotic protease-activating factor 1 (Homo sapiens, UniProt O14727); assay: SAR analysis of small molecule Activators of Apaf-1 in a Fluorescent assay - set 2.; format: functional; settings: read-out: EC50_Mean
Sequence of Apoptotic protease-activating factor 1 (O14727 whole entry): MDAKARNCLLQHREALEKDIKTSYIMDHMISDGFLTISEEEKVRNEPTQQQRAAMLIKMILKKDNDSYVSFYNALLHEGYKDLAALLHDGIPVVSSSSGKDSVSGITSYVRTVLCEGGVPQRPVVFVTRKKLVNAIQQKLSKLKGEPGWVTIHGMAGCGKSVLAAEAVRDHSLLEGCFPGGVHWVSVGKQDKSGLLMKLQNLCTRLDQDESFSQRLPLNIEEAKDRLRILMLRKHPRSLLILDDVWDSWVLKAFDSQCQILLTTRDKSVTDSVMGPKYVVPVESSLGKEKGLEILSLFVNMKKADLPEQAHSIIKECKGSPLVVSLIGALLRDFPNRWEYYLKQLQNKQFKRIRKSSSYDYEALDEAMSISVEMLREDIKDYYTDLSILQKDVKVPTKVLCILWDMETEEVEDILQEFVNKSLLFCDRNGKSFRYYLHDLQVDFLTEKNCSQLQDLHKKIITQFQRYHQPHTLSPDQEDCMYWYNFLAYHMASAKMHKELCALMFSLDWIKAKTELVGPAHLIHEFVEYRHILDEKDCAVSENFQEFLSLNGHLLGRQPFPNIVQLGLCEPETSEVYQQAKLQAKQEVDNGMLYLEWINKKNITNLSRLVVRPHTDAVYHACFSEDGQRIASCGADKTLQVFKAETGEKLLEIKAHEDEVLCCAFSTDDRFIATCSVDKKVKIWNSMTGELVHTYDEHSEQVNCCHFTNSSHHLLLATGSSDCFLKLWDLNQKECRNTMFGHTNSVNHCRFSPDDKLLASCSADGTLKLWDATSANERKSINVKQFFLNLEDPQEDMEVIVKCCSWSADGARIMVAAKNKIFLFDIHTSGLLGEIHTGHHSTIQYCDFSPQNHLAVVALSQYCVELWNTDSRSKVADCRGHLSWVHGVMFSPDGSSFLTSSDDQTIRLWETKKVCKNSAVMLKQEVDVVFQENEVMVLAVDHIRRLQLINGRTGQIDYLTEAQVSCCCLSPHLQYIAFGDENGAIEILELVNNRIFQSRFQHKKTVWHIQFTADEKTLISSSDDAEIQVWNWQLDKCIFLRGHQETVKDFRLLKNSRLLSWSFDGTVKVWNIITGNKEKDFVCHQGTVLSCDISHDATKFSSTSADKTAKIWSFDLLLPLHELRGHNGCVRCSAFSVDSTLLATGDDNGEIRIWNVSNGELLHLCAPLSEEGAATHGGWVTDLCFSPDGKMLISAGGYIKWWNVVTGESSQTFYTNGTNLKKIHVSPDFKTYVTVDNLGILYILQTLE

[17] = biological target: Ribosomal protein S6 kinase alpha-3 (Homo sapiens, UniProt P51812); format: functional;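 further: measured within a kinome-wide profiling panel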
[18] = biological target: Serine/threonine-protein kinase D2 (Homo sapiens, UniProt Q9BZL6); format: functional;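 further: measured against PRKD2 as one member of a kinome-wide kinase profiling panel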
[19] = biological target: Serine/threonine-protein kinase D3 (Homo sapiens, UniProt O94806); format: functional;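 further: determined within a kinase panel screen, with PRKCN as the panel member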
[20] = biological target: Rho-associated protein kinase 1 (Homo sapiens, UniProt Q13464); format: functional;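 further: measured within a broad kinome-wide panel profiling many kinases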
[21] = biological target: Macrophage colony-stimulating factor 1 receptor (Homo sapiens, UniProt P07333); format: functional;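 further: value comes from the Navigating the Kinome screening panel, CSF1R member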
[22] = biological target: T3, High affinity choline transporter 1 (Homo sapiens, UniProt Q9GZV3); assay: human choline transporter blockers, potency – cell-based, 5-point CRC, membrane potential dye, dose response (AID 504840); format: functional
T3 sequence (Q9GZV3 whole entry): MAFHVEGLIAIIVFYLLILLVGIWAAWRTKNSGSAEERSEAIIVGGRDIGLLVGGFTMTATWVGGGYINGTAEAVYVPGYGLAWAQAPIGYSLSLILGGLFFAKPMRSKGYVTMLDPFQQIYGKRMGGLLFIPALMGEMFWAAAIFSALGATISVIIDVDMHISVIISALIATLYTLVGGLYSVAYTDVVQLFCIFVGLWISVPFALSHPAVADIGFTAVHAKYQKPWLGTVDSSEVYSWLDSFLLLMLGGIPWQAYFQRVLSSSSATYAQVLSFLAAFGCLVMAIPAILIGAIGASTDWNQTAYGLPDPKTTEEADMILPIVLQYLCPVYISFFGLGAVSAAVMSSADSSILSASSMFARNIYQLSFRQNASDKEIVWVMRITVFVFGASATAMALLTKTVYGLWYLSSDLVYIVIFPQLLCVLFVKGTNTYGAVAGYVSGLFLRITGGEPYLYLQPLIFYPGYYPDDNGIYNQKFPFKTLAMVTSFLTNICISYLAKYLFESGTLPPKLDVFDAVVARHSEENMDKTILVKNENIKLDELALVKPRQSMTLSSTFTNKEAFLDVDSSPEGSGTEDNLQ

[23] = biological target: T3, High affinity choline transporter 1; assay: human choline transporter blockers, potency – cell-based, 10-point CRC, membrane potential dye, dose response (AID 588401); format: functional;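 further: membrane potential dye fluorescence of choline-evoked depolarization via CHT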
[24] = biological target: Sphingosine 1-phosphate receptor 2 (Homo sapiens, UniProt O95136); assay: Late-stage fluorescence-based dose-response cell-based counterscreen assay to identify agonists of the Sphingosine 1-Phosphate Receptor 3 (S1P3): Sphingosine 1-Phosphate Receptor 2 (S1P2) agonist assay.; format: functional
Sequence of Sphingosine 1-phosphate receptor 2 (O95136 whole entry): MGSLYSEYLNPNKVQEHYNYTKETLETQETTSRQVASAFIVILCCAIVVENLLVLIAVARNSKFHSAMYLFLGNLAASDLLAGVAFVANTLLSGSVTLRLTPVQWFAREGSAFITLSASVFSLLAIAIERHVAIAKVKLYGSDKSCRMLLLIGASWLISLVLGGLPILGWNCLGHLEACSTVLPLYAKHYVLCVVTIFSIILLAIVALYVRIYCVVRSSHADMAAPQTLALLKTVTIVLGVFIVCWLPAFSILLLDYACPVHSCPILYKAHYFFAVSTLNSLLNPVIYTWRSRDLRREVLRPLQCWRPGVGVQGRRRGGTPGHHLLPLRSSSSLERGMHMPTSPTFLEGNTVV

[25] = biological target: Sphingosine 1-phosphate receptor 4 (Homo sapiens, UniProt O95977); assay: Late-stage fluorescence-based dose-response cell-based counterscreen assay to identify agonists of the Sphingosine 1-Phosphate Receptor 3 (S1P3): Sphingosine 1-Phosphate Receptor 4 (S1P4) agonist assay.; format: functional
Sequence of Sphingosine 1-phosphate receptor 4 (O95977 whole entry): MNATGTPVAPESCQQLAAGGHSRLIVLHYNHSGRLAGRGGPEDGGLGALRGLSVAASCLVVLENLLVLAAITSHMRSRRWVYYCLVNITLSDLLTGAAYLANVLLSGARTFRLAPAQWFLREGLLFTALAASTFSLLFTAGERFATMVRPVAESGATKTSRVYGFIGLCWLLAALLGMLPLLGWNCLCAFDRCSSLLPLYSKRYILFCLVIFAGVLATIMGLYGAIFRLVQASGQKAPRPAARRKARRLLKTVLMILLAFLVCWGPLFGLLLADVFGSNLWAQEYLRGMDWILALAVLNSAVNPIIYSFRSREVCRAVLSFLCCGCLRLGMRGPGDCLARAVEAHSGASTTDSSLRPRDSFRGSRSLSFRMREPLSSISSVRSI

[26] = NIH-3T3 fibroblast cytotoxicity, dose response, cytotoxicity control, cell-based, fluorescence, Alamar Blue, secondary assay (AID 2327); format: functional;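 further: NIH-3T3 mouse fibroblasts cultured with fluconazole at 8 µg/mL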
BJ [27] = assay: BJ-TERT fibroblast viability loss – cell-based, RAS-independent, luminescence, dose response (AID 1933); format: functional; settings: Homo sapiens
cells [28] = format: functional, cell-based
BJ [29] = assay: cells; format: functional, cell-based; settings: Homo sapiens
[30] = fluconazole-exposed Candida albicans growth modulators – fluorescence, retest, confirmation (AID 2467); format: functional, cell-based
[31] = Luminescence-based counterscreen assay for KLF5 inhibitors: dose response cell-based high throughput screening assay to identify cytotoxic compounds using the IEC-6 intestinal epithelial cell line. [Related pubchem assays: 1700 (Primary screen.), 1834 (Confirmation screen.), 1858 (Summary AID.), 1905 (Counterscreen.)]; format: functional
[32] = Trypanosoma cruzi growth suppression in host cells – NIH3T3 host cells, beta-gal luminescence, confirmation (AID 2044); format: functional, cell-based;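 further: intracellular parasites grown in NIH/3T3 mouse fibroblasts as host cells; luminescent beta-galactosidase reporter signal from transgenic T. cruzi replicating inside host cells; inhibitors lower the luminescence signal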
cells [33] = format: functional, cell-based; remark: listed apart in the source
[34] = biological target: T4, Serine/threonine-protein phosphatase (Candida dubliniensis (strain CD36 / CBS 7987 / NCPF 3949 / NRRLY-17841) (Yeast), UniProt B9W6M3); assay: blockers of CaCl2-induced CDRE-lacZ signaling – S. cerevisiae, luminescence, secondary, dose response (AID 2388); format: functional, cell-based;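 further: yeast reporter cells carrying a calcineurin-responsive lacZ construct stimulated with calcium chloride; luminescent beta-galactosidase reporter signal in whole cells rather than isolated phosphatase activity; potency for inhibition where a drop in reporter signal means calcineurin blockade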
T4 sequence (B9W6M3 whole entry): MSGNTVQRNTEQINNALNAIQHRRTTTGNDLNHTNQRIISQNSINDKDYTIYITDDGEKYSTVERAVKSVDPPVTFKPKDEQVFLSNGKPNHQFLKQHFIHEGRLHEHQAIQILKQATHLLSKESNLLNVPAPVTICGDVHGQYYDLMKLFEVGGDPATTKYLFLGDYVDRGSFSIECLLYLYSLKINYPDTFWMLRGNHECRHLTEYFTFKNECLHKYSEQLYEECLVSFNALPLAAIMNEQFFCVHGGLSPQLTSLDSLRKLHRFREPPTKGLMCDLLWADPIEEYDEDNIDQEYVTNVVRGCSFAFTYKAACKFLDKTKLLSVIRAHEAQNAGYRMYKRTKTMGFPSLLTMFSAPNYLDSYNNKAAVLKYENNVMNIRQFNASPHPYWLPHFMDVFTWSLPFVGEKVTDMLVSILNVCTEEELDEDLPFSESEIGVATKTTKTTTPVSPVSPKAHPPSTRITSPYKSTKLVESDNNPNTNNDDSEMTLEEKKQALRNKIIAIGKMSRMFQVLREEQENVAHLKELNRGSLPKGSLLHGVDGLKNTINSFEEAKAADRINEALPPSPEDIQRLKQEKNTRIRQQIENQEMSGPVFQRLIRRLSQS

[35] = NIH3T3 cell viability loss – ATP luminescence, mouse fibroblasts, counter-screen, dose response (AID 2010); format: functional, cell-based;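 further: cells exposed to compound for about 90 hours before reading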
BJ [36] = assay: BJ-TERT-LT-ST fibroblast viability loss – cell-based, RAS-independent, luminescence, dose response (AID 1935); format: functional; settings: Homo sapiens;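 further: BJ fibroblasts immortalized with TERT plus LT and ST oncogenes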
[37] = DRD fibroblast viability loss – cell-based, non-viral oncogenic, luminescence, dose response (AID 1934); format: functional; settings: Homo sapiens
HEK293 = assay: EBV LMP1 TES2 canonical NF-kB signalling blockers – cell-based, HEK293, luciferase, cherry-pick, dose response (AID 588343); format: functional; settings: Homo sapiens
[38] = biological target: Latent membrane protein 1 (Human herpesvirus 4 (strain B95-8), UniProt P03230); assay: LMP1 TES1 pathway selectivity over dsRED control – imaging, HEK293T, dual-color eGFP/dsRED, cherry-picks, selectivity assay for LMP1 NF-kB inhibitor project, dose response (AID 588398); format: functional, cell-based
[39] = biological target: ATP-dependent molecular chaperone HSP82 (Candida albicans (strain WO-1) (Yeast), UniProt C4YTQ8); assay: steroid-induced GRE reporter decrease in yeast – S. cerevisiae, luminescence, Hsp90 inhibitor project, dose response (AID 2400); format: functional, cell-based;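 further: beta-galactosidase luminescence from glucocorticoid response element reporter as proxy for Hsp90 function; inhibitor potency where signal loss means Hsp90 inhibition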
Sequence of ATP-dependent molecular chaperone HSP82 (C4YTQ8 whole entry): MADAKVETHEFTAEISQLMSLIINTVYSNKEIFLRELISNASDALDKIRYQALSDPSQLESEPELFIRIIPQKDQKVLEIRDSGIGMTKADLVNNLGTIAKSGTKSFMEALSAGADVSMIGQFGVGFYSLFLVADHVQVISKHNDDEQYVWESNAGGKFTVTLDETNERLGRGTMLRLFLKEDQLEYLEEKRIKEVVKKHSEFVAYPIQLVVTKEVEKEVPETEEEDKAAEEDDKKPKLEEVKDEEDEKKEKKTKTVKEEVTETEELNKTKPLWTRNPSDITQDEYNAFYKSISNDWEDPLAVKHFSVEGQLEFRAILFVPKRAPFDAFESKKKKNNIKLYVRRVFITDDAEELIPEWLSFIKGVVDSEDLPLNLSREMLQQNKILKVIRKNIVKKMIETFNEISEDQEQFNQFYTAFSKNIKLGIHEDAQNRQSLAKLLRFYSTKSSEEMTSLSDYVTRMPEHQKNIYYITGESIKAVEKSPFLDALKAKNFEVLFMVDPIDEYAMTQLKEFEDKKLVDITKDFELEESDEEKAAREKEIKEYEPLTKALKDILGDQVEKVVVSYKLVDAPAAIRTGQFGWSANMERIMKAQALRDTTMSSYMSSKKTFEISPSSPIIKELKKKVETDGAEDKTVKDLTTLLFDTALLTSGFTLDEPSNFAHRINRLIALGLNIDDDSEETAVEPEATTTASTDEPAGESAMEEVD

[40] = biological target: Casein kinase II subunit alpha (Homo sapiens, UniProt P68400); format: functional
[41] = biological target: Serine/threonine-protein kinase Nek4 (Homo sapiens, UniProt P51957); format: functional
[42] = biological target: Interleukin-1 receptor-associated kinase 4 (Homo sapiens, UniProt Q9NWZ3); format: functional
Sequence of Interleukin-1 receptor-associated kinase 4 (Q9NWZ3 whole entry): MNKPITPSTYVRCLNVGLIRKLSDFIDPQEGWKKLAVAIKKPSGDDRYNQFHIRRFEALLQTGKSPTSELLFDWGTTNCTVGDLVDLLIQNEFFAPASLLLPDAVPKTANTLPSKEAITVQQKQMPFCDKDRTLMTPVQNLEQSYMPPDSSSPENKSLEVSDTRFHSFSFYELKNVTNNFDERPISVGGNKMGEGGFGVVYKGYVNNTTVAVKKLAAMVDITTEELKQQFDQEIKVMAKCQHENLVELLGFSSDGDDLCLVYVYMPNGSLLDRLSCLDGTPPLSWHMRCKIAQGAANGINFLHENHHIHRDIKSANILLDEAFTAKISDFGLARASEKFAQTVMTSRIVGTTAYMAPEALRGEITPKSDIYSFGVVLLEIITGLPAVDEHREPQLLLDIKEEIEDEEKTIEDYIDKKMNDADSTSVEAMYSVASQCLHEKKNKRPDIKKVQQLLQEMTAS

[43] = biological target: Glycogen synthase kinase-3 beta (Homo sapiens, UniProt P49841); format: functional;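 further: value comes from a broad kinome profiling panel, with GSK3B as the panel member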

Sequence of Dual specificity protein kinase CLK4 (Q9HAZ1 whole entry): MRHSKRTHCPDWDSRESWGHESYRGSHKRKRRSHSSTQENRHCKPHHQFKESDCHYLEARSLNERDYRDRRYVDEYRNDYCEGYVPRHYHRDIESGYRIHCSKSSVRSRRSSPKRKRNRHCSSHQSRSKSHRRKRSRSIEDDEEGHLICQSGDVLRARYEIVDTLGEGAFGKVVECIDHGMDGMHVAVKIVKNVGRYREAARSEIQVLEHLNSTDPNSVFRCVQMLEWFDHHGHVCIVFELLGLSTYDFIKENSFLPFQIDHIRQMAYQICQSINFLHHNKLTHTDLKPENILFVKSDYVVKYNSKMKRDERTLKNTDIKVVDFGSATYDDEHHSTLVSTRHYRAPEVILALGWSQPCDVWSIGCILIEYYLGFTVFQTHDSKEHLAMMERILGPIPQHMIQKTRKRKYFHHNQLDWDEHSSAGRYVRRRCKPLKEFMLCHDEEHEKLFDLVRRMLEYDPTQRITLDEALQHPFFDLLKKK

Compound: C[C@@H]1CN([C@@H](C)CO)C(=O)c2cccc(NC(=O)Nc3cccc4ccccc34)c2O[C@H]1CN(C)S(=O)(=O)c1ccc(Cl)cc1
AC50 (INS1 [10]): 31.1 µM (active)
AC50 (INS1 [11]): > 195 µM (inactive)
AC50 (INS1 [12]): 90.1 µM (active)
AC50 (INS1 [13]): 44.2 µM (active)
AC50 (INS1 [14]): 41.3 µM (active)

Compound: Cc1nn(CC(C)C(=O)O)c(C)c1C (stereo not given)
EC50 [15]: > 100 µM (inactive)
EC50 [16]: 63.6 µM (active)

Compound: Nc1ncnc2c1ncn2C1OC(C(=O)NC2CC2)C(O)C1O (stereo not given)
IC50 [22]: 0.0241 nM (inconclusive)
IC50 [23]: 0.00447 µM (active)

Compound: O=C(c1coc(C2CC2)n1)N(C1CCCCC1)C1CCCCC1
EC50 [24]: > 50 µM (inactive)
EC50 [25]: > 50 µM (inactive)

Compound: Cc1ccc(C(=O)N/N=C/c2c(O)ccc3ccccc23)cn1
EC50 [26]: > 150 µM (inactive)
EC50 (BJ [27]): 1 µM (active)
EC50 (cells [28]): 6.93 µM (active)
EC50 (BJ [29]): 10.4 µM (inconclusive)
EC50 [30]: 0.803 µM (active)
IC50 [31]: 3.96 µM (active)
EC50 [32]: 1.59 µM (active)
EC50 (cells [33]): > 350 µM (not active)
EC50 [34]: > 180 µM (inactive)
EC50 [35]: 10.9 µM (active)
EC50 (BJ [36]): 13.1 µM (active)
EC50 [37]: 2.72 µM (active)
AC50 (HEK293): 5.41 µM (active)
AC50 [38]: 9.88 µM (active)
EC50 [39]: > 150 µM (inactive)

Compound: C(=Cc1cncc(OCCc2c[nH]c3ccccc23)c1)c1ccncc1
Ki [40]: 3.16 µM (active)
Ki [41]: 6.31 µM (active)
Ki [42]: > 10 µM (inactive)
Ki [43]: 5.01 µM (active)
Ki [2]: 1 µM (active)

Now from value to compound:

Ki [1]: 1.58 µM (active)
Ki [2]: 2.51 µM (active)
Ki [3]: 2.51 µM (active)
Compound: CCc1cccc2c1n(CC)c(=N)n2CC(=O)c1ccc(Cl)cc1

IC50 [4]: > 100 µM (inactive)
IC50 [5]: 10.3 µM (active)
IC50 [6]: 4.97 µM (active)
IC50 [7]: 6.8 µM (active)
IC50 [8]: > 99 µM (inactive)
IC50 [9]: 43 µM (inactive)
Compound: CC1(C)Oc2ccc3ccc(=O)oc3c2C(/C=N/O)=C1Cl

Ki [17]: 3.16 µM (active)
Ki [18]: 1.58 µM (active)
Ki [19]: 1.58 µM (active)
Ki [20]: 3.98 µM (active)
Ki [21]: 1.26 µM (active)
Compound: CCNC(=O)c1[nH]nc(-c2cc(Cl)c(O)cc2O)c1-c1ccc(OC)cc1
